Measurements taken from the NIST ThermoML archive (doi:10.1021/je301164d).

Conditions: Fluid (supercritical or subcritical phases)

FC(C(F)(F)F)C(F)(F)F [1,1,1,2,3,3,3-heptafluoropropane]
Conditions	speed of sound [m/s]
280 K, 603.72 kPa	494.1
280 K, 1104.4 kPa	498.92
280 K, 1604.7 kPa	503.64
280 K, 2105 kPa	508.26
280 K, 3105.8 kPa	517.26
280 K, 4106.2 kPa	525.95
280 K, 5107.1 kPa	534.35
280 K, 6107.9 kPa	542.49
280 K, 7109.3 kPa	550.4
280 K, 8110 kPa	558.07
280 K, 9110.7 kPa	565.55
280 K, 10111 kPa	572.83
280 K, 12613 kPa	590.29
280 K, 15115 kPa	606.8
280 K, 17616 kPa	622.5
280 K, 20118 kPa	637.48
280 K, 35129 kPa	716.11
280 K, 40132 kPa	739.1
280 K, 45136 kPa	760.88
280 K, 50139 kPa	781.61
280.01 K, 25122 kPa	665.6
280.01 K, 30125 kPa	691.69
299.99 K, 1103 kPa	417.61
299.99 K, 1603.4 kPa	423.61
299.99 K, 2103.8 kPa	429.45
300 K, 3106.4 kPa	440.66
300 K, 4107.2 kPa	451.3
300 K, 5107.9 kPa	461.45
300 K, 6108.6 kPa	471.17
300 K, 7109.4 kPa	480.51
300 K, 8110.1 kPa	489.5
300 K, 9110.1 kPa	498.18
300 K, 10111 kPa	506.58
300 K, 12612 kPa	526.5
300 K, 15114 kPa	545.09
300 K, 17616 kPa	562.57
300 K, 20118 kPa	579.11
300 K, 25122 kPa	609.85
300 K, 30126 kPa	638.04
300 K, 35129 kPa	664.19
300 K, 40132 kPa	688.66
300 K, 45136 kPa	711.71
300 K, 50139 kPa	733.55
320 K, 1104.2 kPa	332.96
320 K, 2104.9 kPa	349.11
320 K, 3105.5 kPa	363.82
320 K, 4105.6 kPa	377.39
320 K, 5106.4 kPa	390.04
320 K, 6107.1 kPa	401.94
320 K, 7107.7 kPa	413.18
320 K, 8108.4 kPa	423.87
320 K, 9109 kPa	434.06
320 K, 10110 kPa	443.83
320 K, 12612 kPa	466.66
320 K, 15113 kPa	487.61
320 K, 17615 kPa	507.06
320 K, 20117 kPa	525.27
320 K, 25120 kPa	558.72
320 K, 30124 kPa	589.03
320 K, 35128 kPa	616.9
320 K, 40131 kPa	642.8
320 K, 45135 kPa	667.06
320.01 K, 50138 kPa	689.95
340 K, 1603.1 kPa	249.98
340 K, 2103.4 kPa	262.38
340 K, 3104.1 kPa	283.96
340 K, 4104.8 kPa	302.59
340 K, 5105.4 kPa	319.17
340 K, 6106 kPa	334.23
340 K, 7106.7 kPa	348.1
340 K, 8108.1 kPa	361.03
340 K, 9108.9 kPa	373.15
340 K, 10110 kPa	384.6
340 K, 12612 kPa	410.84
340 K, 15113 kPa	434.43
340 K, 17615 kPa	456
340 K, 20117 kPa	475.96
340 K, 25120 kPa	512.15
340 K, 30124 kPa	544.54
340 K, 35127 kPa	574.06
